Consider one substance from patent publication US6350741B1, “Inhibitors of interleukin-1β converting enzyme” (Vertex Pharmaceutical, Inc., priority 1996, dated 2002).

Series [1] can be described thus: In vivo bioavailability determination (oral dosing to rats). To be noted: rat. The protocol:
In vivo Bioavailability Determination
The drugs (10-100 mg/kg) were dosed orally to rats (10 mL/kg) in ethanol/PEG/water, β-cyclodextrin, labrosol/water or cremophor/water. Blood samples were drawn from the carotid artery at 0.25, 0.50, 1, 1.5, 2, 3, 4, 6, and 8 hours after dosing, centrifuged to separate plasma and stored at −70° C. until analyzed. Aldehyde concentrations were determined using HPLC/MS. Pharmacokinetic analysis of data was performed by non-linear regression using RStrip (MicroMath Software, UT). Drug availability values may be determined as follows: (AUC of drug after oral prodrug dosing/AUC of drug after i.v. dosing of drug)×(dose i.v./dose p.o.)×100%.

A further series deals with IL-1β. The series can be described thus: LPS-induced IL-1β production in mice. Format: in vivo, mouse. Conditions: PO @ 100 mg/kg, compound given 1 hour relative to LPS challenge. The protocol: In vivo Acute Assay for Efficacy as Anti-inflammatory Agent
LPS-Induced IL-1β Production
Efficacy is evaluated in CD1 mice (n is 6 per condition, for example) challenged with LPS (20 mg/kg IP). The test compounds are prepared in olive oil:DMSO:ethanol (90:5:5) and administered by IP injection one hour after LPS. Blood is collected seven hours after LPS challenge. Serum IL-1β levels are measured by ELISA.
Compounds may also be administered by oral gavage to assess absorption.
We obtained inhibition data in Table 5 using the methods described in Example 12. Efficacy for Prodrugs in LPS-Induced IL-1β Production in Mice. Time of compound administration relative to time of LPS challenge was 1 hour. Dose of compound was PO @ 100 mg/kg.

Broadly, the Cmax is the peak of the concentration-time curve. Take “(3S)-2,5-Dioxo-3-(Isoquinolin-3-oyl)amino-2,3,4,5-tetrahyo-1H-1-benzazepine-N-((2RS, 3S)-2-benzyloxy-5-oxo-tetrahydrofuran-3-yl)-1-acetamide [Compound 16b]”: in series [1] (oral prodrug dosing), the “blood levels of drug when dosed orally” value is listed as “significant blood levels of drug”. Further, the Cmax in series [1] (oral, dose 50 mg/kg, aldehyde (drug) concentration after prodrug dosing) stood at 6100 ng/mL. The “% Inhibition of IL-1β” value in the series with IL-1β turned out to be 53%.
